Source: the supplement of paper PMC10307832

Key:
Test in all cases: relative viability (nuclei count vs DMSO), 5 days (fraction); higher = more cells survive
NCI-H1793 = system: NCI-H1793
Outline: (§1)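 Nuclei were stained with Hoechst during a one-step fixation (final 0.05% Triton X-100, 1% formaldehyde, 1 ug/ml Hoechst) carried out 5 days after dosing, then counted on 4× images. The cells, lung cancer lines in 1536-well plates, had been dosed by pin tool the day after seeding with one drug alone or a fixed anchor-drug dose plus five library-drug doses (not always all listed) in √10 steps. Relative viability is the nuclei count in treated wells divided by that in vehicle wells, and each value is the median of duplicate plates.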

NCI-H1437 = system: NCI-H1437
Outline: as §1

HCC-366 = system: HCC-366
Outline: as §1

NCI-H1650 = system: NCI-H1650
Outline: as §1

NCI-H460 = system: NCI-H460
Outline: as §1

NCI-H2023 = system: NCI-H2023
Outline: as §1

LU99A = system: LU99A
Outline: as §1

NCI-H441 = system: NCI-H441
Outline: as §1

NCI-H1355 = system: NCI-H1355
Outline: as §1

LOU-NH91 = system: LOU-NH91
Outline: as §1

NCI-H838 = system: NCI-H838
Outline: as §1

COR-L23 = system: COR-L23
Outline: as §1

NCI-H1651 = system: NCI-H1651
Outline: as §1

NCI-H1734 = system: NCI-H1734
Outline: as §1

NCI-H1975 = system: NCI-H1975
Outline: as §1

NCI-H358 = system: NCI-H358
Outline: as §1

BEN = system: BEN
Outline: as §1

CAL-12T = system: CAL-12T
Outline: as §1

NCI-H2342 = system: NCI-H2342
Outline: as §1

NCI-H2085 = system: NCI-H2085
Outline: as §1

SK-LU-1 = system: SK-LU-1
Outline: as §1

## COc1nc(C)cnc1NS(=O)(=O)c1cccnc1-c1ccc(-c2nnco2)cc1 [Zibotentan] + Cc1cc(Nc2cc(N3CCN(C)CC3)nc(Sc3ccc(NC(=O)C4CC4)cc3)n2)n[nH]1 [Tozasertib] (partner 0.1 µM)
NCI-H1793; first compound 0.08 µM
  relative viability: 0.336
NCI-H1793; first compound 0.253 µM
  relative viability: 0.352
NCI-H1793; first compound 0.8 µM
  relative viability: 0.273
NCI-H1793; first compound 2.53 µM
  relative viability: 0.3
NCI-H1437; first compound 0.08 µM
  relative viability: 0.421
NCI-H1437; first compound 0.253 µM
  relative viability: 0.378
NCI-H1437; first compound 0.8 µM
  relative viability: 0.38
NCI-H1437; first compound 2.53 µM
  relative viability: 0.448
HCC-366; first compound 0.08 µM
  relative viability: 0.132
HCC-366; first compound 0.253 µM
  relative viability: 0.0914
HCC-366; first compound 0.8 µM
  relative viability: 0.0627
HCC-366; first compound 2.53 µM
  relative viability: 0.156
NCI-H1650; first compound 0.08 µM
  relative viability: 0.491
NCI-H1650; first compound 0.8 µM
  relative viability: 0.487
NCI-H1650; first compound 2.53 µM
  relative viability: 0.418
NCI-H460; first compound 0.08 µM
  relative viability: 0.625
NCI-H460; first compound 0.253 µM
  relative viability: 0.158
NCI-H460; first compound 0.8 µM
  relative viability: 0.106
NCI-H460; first compound 2.53 µM
  relative viability: 0.385
NCI-H2023; first compound 0.08 µM
  relative viability: 0.356
NCI-H2023; first compound 0.253 µM
  relative viability: 0.254
NCI-H2023; first compound 0.8 µM
  relative viability: 0.298
NCI-H2023; first compound 2.53 µM
  relative viability: 0.387
LU99A; first compound 0.08 µM
  relative viability: 0.319
LU99A; first compound 0.253 µM
  relative viability: 0.25
LU99A; first compound 0.8 µM
  relative viability: 0.302
LU99A; first compound 2.53 µM
  relative viability: 0.301
NCI-H441; first compound 0.08 µM
  relative viability: 0.633
NCI-H441; first compound 0.253 µM
  relative viability: 0.545
NCI-H441; first compound 0.8 µM
  relative viability: 0.728
NCI-H441; first compound 2.53 µM
  relative viability: 0.592
NCI-H1355; first compound 0.08 µM
  relative viability: 0.626
NCI-H1355; first compound 0.253 µM
  relative viability: 0.537
NCI-H1355; first compound 0.8 µM
  relative viability: 0.55
NCI-H1355; first compound 2.53 µM
  relative viability: 0.565
LOU-NH91; first compound 0.08 µM
  relative viability: 0.729
LOU-NH91; first compound 0.253 µM
  relative viability: 0.586
LOU-NH91; first compound 0.8 µM
  relative viability: 0.722
LOU-NH91; first compound 2.53 µM
  relative viability: 0.669
NCI-H838; first compound 0.08 µM
  relative viability: 0.284
NCI-H838; first compound 0.253 µM
  relative viability: 0.229
NCI-H838; first compound 0.8 µM
  relative viability: 0.274
NCI-H838; first compound 2.53 µM
  relative viability: 0.329
COR-L23; first compound 0.08 µM
  relative viability: 0.218
COR-L23; first compound 0.253 µM
  relative viability: 0.216
COR-L23; first compound 0.8 µM
  relative viability: 0.224
COR-L23; first compound 2.53 µM
  relative viability: 0.337
NCI-H1651; first compound 0.08 µM
  relative viability: 0.678
NCI-H1651; first compound 0.253 µM
  relative viability: 0.552
NCI-H1651; first compound 0.8 µM
  relative viability: 0.767
NCI-H1651; first compound 2.53 µM
  relative viability: 0.717
NCI-H1734; first compound 0.08 µM
  relative viability: 0.283
NCI-H1734; first compound 0.253 µM
  relative viability: 0.253
NCI-H1734; first compound 0.8 µM
  relative viability: 0.247
NCI-H1734; first compound 2.53 µM
  relative viability: 0.326
NCI-H1975; first compound 0.08 µM
  relative viability: 0.732
NCI-H1975; first compound 0.253 µM
  relative viability: 0.695
NCI-H1975; first compound 0.8 µM
  relative viability: 0.727
NCI-H1975; first compound 2.53 µM
  relative viability: 0.831
NCI-H358; first compound 0.08 µM
  relative viability: 0.0974
NCI-H358; first compound 0.253 µM
  relative viability: 0.099
NCI-H358; first compound 0.8 µM
  relative viability: 0.0954
NCI-H358; first compound 2.53 µM
  relative viability: 0.0945
BEN; first compound 0.08 µM
  relative viability: 0.542
BEN; first compound 0.253 µM
  relative viability: 0.426
BEN; first compound 0.8 µM
  relative viability: 0.473
BEN; first compound 2.53 µM
  relative viability: 0.642
CAL-12T; first compound 0.08 µM
  relative viability: 0.268
CAL-12T; first compound 0.253 µM
  relative viability: 0.289
CAL-12T; first compound 0.8 µM
  relative viability: 0.351
CAL-12T; first compound 2.53 µM
  relative viability: 0.31
NCI-H2342; first compound 0.08 µM
  relative viability: 0.496
NCI-H2342; first compound 0.253 µM
  relative viability: 0.446
NCI-H2342; first compound 0.8 µM
  relative viability: 0.493
NCI-H2342; first compound 2.53 µM
  relative viability: 0.667
NCI-H2085; first compound 0.08 µM
  relative viability: 0.788
NCI-H2085; first compound 0.253 µM
  relative viability: 0.698
NCI-H2085; first compound 0.8 µM
  relative viability: 0.703
NCI-H2085; first compound 2.53 µM
  relative viability: 0.821
SK-LU-1; first compound 0.08 µM
  relative viability: 0.327
SK-LU-1; first compound 0.253 µM
  relative viability: 0.283
SK-LU-1; first compound 0.8 µM
  relative viability: 0.336
SK-LU-1; first compound 2.53 µM
  relative viability: 0.424
